Experimental data published in patent publication US20250215029A1 (Recludix Pharma, Inc., priority 2022, published 2025).
pIC50: −log10 of the molar value.

The compounds below were run against T1, pY641-STAT6 in PBMC (Homo sapiens, UniProt P42226) (assay: MSD-pSTAT-PBMC Assay (pSTAT6, IL-4 stimulated)). Conditions: STAT6, PBMC, compound 3 hrs, then 1 ng/mL IL-4 for 10 min; Table 115.
T1 construct: Cryopreserved Peripheral Blood Mononuclear Cells (PBMC) are from AllCells; host or cells: cryopreserved PBMC
T1 sequence (P42226 1-847): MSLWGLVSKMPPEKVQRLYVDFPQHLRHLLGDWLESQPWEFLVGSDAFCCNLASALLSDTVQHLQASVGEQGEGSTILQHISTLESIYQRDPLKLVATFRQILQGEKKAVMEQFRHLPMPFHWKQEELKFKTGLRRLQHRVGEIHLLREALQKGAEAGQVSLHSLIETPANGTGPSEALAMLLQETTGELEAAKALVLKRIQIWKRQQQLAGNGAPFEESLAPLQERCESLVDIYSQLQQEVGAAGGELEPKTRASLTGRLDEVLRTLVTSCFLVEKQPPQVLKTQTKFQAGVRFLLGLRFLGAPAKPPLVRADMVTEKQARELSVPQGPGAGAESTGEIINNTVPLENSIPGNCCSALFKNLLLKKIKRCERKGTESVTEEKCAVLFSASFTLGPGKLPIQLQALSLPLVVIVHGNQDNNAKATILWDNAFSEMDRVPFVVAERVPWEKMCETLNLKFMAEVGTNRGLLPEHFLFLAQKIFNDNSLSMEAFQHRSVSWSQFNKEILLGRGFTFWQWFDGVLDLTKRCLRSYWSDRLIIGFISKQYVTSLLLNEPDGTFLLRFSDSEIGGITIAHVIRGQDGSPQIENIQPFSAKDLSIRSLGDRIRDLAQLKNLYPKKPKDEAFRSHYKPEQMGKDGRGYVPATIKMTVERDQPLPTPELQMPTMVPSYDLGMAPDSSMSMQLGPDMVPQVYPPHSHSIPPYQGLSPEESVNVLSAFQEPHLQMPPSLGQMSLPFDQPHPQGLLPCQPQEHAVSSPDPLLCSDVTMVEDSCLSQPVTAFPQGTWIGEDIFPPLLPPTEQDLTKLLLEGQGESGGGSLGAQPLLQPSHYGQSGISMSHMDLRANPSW
Type: cell-based
Source text: Cryopreserved Peripheral Blood Mononuclear Cells (PBMC) are from AllCells. Recombinant Human IL-4 and IL-6 are from Peprotech. Mouse monoclonal anti-STAT3 antibody, rabbit monoclonal anti-pY705-STAT3 antibody, rabbit monoclonal Anti-pY641-STAT6 antibody, and lysis buffer are from Cell Signaling Technology (CST). Mouse monoclonal anti-STAT6 antibody is from BioLegend. Assay plates, blocker, and anti-rabbit secondary antibody are from Meso Scale Discovery (MSD).
Cyropreserved PBMCs were thawed out and allowed to recover overnight in IMDM+10% heat-inactivated FBS prior to plating 50,000 (STAT3) or 25,000 (STAT6) cells per well in 96-well U-bottom tissue culture plates. Cells were treated with compound for 3 hrs, then stimulated with 10 ng/mL IL-6 (STAT3) or 1 ng/mL IL-4 (STAT6) for 10 min. Cells were then spun down and washed with ice-cold PBS prior to lysing the cell pellet with 1× lysis buffer (CST) with 1× HALT protease and phosphatase inhibitor cocktail (Thermo). Lysates were transferred to and incubated overnight at 4° C. with shaking in QuickPlex 96-well high bind assay plates (MSD) pre-coated overnight with 30 μL per well of 0.6 μg/mL mouse monoclonal anti-STAT3 antibody (STAT3) or 2 μg/mL mouse monoclonal anti-STAT6 antibody (STAT6) in 1× PBS, and pre-blocked for 1 hour with 3% Blocker-A (MSD). Captured protein in the assay plates were then washed and probed with 25 μL per well of […] rabbit monoclonal anti-pY705-STAT3 antibody (STAT3) or 0.18 μg/ml rabbit monoclonal Anti-pY641-STAT6 antibody (STAT6) in 1% Blocker-A for 1 hour at room temperature with shaking, then washed and probed with 25 ul per well of 1 ug/ml Sulfo-TAG Labeled Goat Anti-Rabbit Antibody (MSD) in 1% Blocker-A for 1 hour at room temperature with shaking. Assay plates were then washed and 150 μL of 1× Read Buffer-T (MSD) was added to each well prior to reading on an SQ120 MSD Plate Reader. Assay signal from each sample was subtracted by the signal from unstimulated control wells and normalized to DMSO control wells. IC50 values were calculated using Graph Pad Prism Dose-Response Nonlinear Regression with variable slope. For both pSTAT3 and pSTAT6 A=≤100 nM; B 100-1000 nM; C=>1000-3000 nM; D=>3 μM; and NT=Not Tested.

SMILES | pIC50
CCCOC(=O)[C@H](C)NP(=O)(Oc1ccccc1)[C@@H](F)c1ccc2sc(C(=O)N[C@H]3CCCC[C@H]4CC[C@@H](C(=O)N5C(=O)N(c6ccc(C(F)(F)F)nc6)C(=O)C56CC6)N4C3=O)cc2c1 (stereo partly drawn) [Compound 327, propyl (((R)-(2-(((3S,6S,10aS)-3-(5,7-dioxo-6-(6-(trifluoromethyl)pyridin-3-yl)-4,6-diazaspiro[2.4]heptane-4-carbonyl)-5-oxodecahydropyrrolo [1,2-a]azocin-6-yl)carbamoyl)benzo [b]thiophen-5-yl)fluoromethyl) (phenoxy)phosphoryl)-L-alaninate] | < 5.52
CCCOC(=O)[C@H](C)NP(=O)(Oc1ccccc1)C(C)(F)c1ccc2sc(C(=O)N[C@H]3CCCC[C@H]4CC[C@@H](C(=O)N5CCC(c6cccnc6)C5)N4C3=O)cc2c1 (stereo partly drawn) [Compound 314, propyl ((1-fluoro-1-(2-(((3S,6S,10aS)-5-oxo-3-(3-(pyridin-3-yl)pyrrolidine-1-carbonyl)decahydropyrrolo[1,2-a]azocin-6-yl)carbamoyl)benzo [b]thiophen-5-yl)ethyl)(phenoxy)phosphoryl)-L-alaninate] | < 5.52
CCCOC(=O)[C@H](C)NP(=O)(Oc1ccccc1)C(F)c1ccc2ccc(C(=O)N[C@H]3CCCC[C@H]4CC[C@@H](C(=O)N5CC(c6cccnc6)CC56CC6)N4C3=O)cc2c1 (stereo partly drawn) [Compound 429, propyl ((fluoro(7-(((3S,6S,10aS)-5-oxo-3-(6-(pyridin-3-yl)-4-azaspiro[2.4]heptane-4-carbonyl)decahydropyrrolo[1,2-a]azocin-6-yl)carbamoyl)naphthalen-2-yl)methyl)(phenoxy)phosphoryl)-L-alaninate] | > 7.00
CCCOC(=O)[C@H](C)NP(=O)(Cc1ccc2sc(C(=O)N[C@H]3CCCC[C@H]4CC[C@@H](C(=O)N5C[C@@H](c6cccnc6)CC56CC6)N4C3=O)cc2c1)Oc1ccccc1 (stereo partly drawn) [Compound 476, propyl (((2-(((3S,6S,10aS)-5-oxo-3-((R)-6-(pyridin-3-yl)-4-azaspiro[2.4]heptane-4-carbonyl)decahydropyrrolo[1,2-a]azocin-6-yl)carbamoyl)benzo [b]thiophen-5-yl)methyl)(phenoxy)phosphoryl)-L-alaninate] | > 7.00
CCCOC(=O)[C@H](C)NP(=O)(Oc1c(C)cccc1C)[C@@H](F)c1ccc2sc(C(=O)N[C@H]3CCC[C@H]4CC[C@@H](C(=O)N5C[C@@H](c6cccnc6)CC56CC6)N4C3=O)cc2c1 (stereo partly drawn) [Compound 481, propyl ((2,6-dimethylphenoxy) ((R)-fluoro(2-(((3S,6S,9aS)-5-oxo-3-((R)-6-(pyridin-3-yl)-4-azaspiro[2.4]heptane-4-carbonyl)octahydro-1H-pyrrolo[1,2-a]azepin-6-yl)carbamoyl)benzo [b]thiophen-5-yl)methyl)phosphoryl)-L-alaninate] | > 7.00
CCCOC(=O)[C@H](C)NP(=O)(Oc1ccccc1)C(F)c1ccc2ccc(C(=O)N[C@H]3CCCC[C@H]4CC[C@@H](C(=O)N5C[C@H](c6ccccc6)[C@@H](C#N)C56CC6)N4C3=O)cc2c1 (stereo partly drawn) [Compound 442, propyl (((7-(((3S,6S,10aS)-3-((6S,7R)-7-cyano-6-phenyl-4-azaspiro[2.4]heptane-4-carbonyl)-5-oxodecahydropyrrolo [1,2-a]azocin-6-yl)carbamoyl)naphthalen-2-yl)fluoromethyl) (phenoxy)phosphoryl)-L-alaninate] | > 7.00
CCCOC(=O)[C@H](C)NP(=O)(Oc1ccccc1)[C@@H](F)c1ccc2sc(C(=O)N[C@H]3CCC[C@H]4CC[C@@H](C(=O)N5C[C@H](c6ccc(C)cc6)[C@@H](C#N)C56CC6)N4C3=O)cc2c1 (single isomer, unassigned) [Compound 478] | > 7.00
CCCOC(=O)[C@H](C)NP(=O)(Oc1ccccc1)[C@@H](F)c1ccc2sc(C(=O)N[C@H]3CCCC[C@H]4CC[C@@H](C(=O)N5C[C@H](c6cccc(C#N)c6)[C@@H](C#N)C56CC6)N4C3=O)cc2c1 (single isomer, unassigned) [Compound 339] | > 7.00
CCCOC(=O)[C@H](C)NP(=O)(Oc1ccccc1)C(F)c1ccc2ccc(C(=O)N[C@H]3CCCC[C@H]4CC[C@@H](C(=O)N5C[C@@H](C#N)[C@H](c6ccccc6)C5)N4C3=O)cc2c1 (single isomer, unassigned) [Compound 316] | > 7.00
CCCOC(=O)[C@H](C)NP(=O)(Oc1ccccc1)C(F)(F)c1ccc2ccc(C(=O)N[C@H]3CCCC[C@H]4CC[C@@H](C(=O)N5CCC(c6cccnc6)C5)N4C3=O)cc2c1 (stereo partly drawn) [Compound 312, propyl ((difluoro(7-(((3S,6S,10aS)-5-oxo-3-(3-(pyridin-3-yl)pyrrolidine-1-carbonyl)decahydropyrrolo[1,2-a]azocin-6-yl)carbamoyl)naphthalen-2-yl)methyl)(phenoxy)phosphoryl)-L-alaninate] | < 5.52
CCCOC(=O)[C@H](C)NP(=O)(Oc1ccccc1)[C@H](F)c1ccc2sc(C(=O)N[C@H]3CCCC[C@H]4CC[C@@H](C(=O)N5CC(c6cccnc6)CC56CC6)N4C3=O)cc2c1 (stereo in doubt) [Compound 458, propyl (((S)-fluoro(2-(((3S,6S,10aS)-5-oxo-3-((R)-6-(pyridin-3-yl)-4-azaspiro[2.4]heptane-4-carbonyl)decahydropyrrolo[1,2-a]azocin-6-yl)carbamoyl)benzo [b]thiophen-5-yl)methyl)(phenoxy)phosphoryl)-L-alaninate] | > 7.00
C[C@H](NP(=O)(Oc1ccccc1)[C@@H](F)c1ccc2sc(C(=O)N[C@H]3CCCC[C@H]4CC[C@@H](C(=O)N5C[C@@H](c6cccnc6)CC56CC6)N4C3=O)cc2c1)C(=O)OCc1ccccn1 (stereo partly drawn) [Compound 385, pyridin-2-ylmethyl (((R)-fluoro(2-(((3S,6S,10aS)-5-oxo-3-((R)-6-(pyridin-3-yl)-4-azaspiro[2.4]heptane-4-carbonyl)decahydropyrrolo[1,2-a]azocin-6-yl)carbamoyl)benzo [b]thiophen-5-yl)methyl)(phenoxy)phosphoryl)-L-alaninate] | > 7.00
CCCOC(=O)[C@H](C)NP(=O)(Oc1ccccc1)[C@@H](F)c1ccc2sc(C(=O)N[C@H]3CCCC[C@H]4CC[C@@H](C(=O)N5C(=O)N(c6cnccc6C)C(=O)C56CC6)N4C3=O)cc2c1 (stereo partly drawn) [Compound 334, propyl (((R)-fluoro(2-(((3S,6S,10aS)-3-(6-(4-methylpyridin-3-yl)-5,7-dioxo-4,6-diazaspiro[2.4]heptane-4-carbonyl)-5-oxodecahydropyrrolo [1,2-a]azocin-6-yl)carbamoyl)benzo [b]thiophen-5-yl)methyl)(phenoxy)phosphoryl)-L-alaninate] | > 7.00
CCCOC(=O)[C@H](C)NP(=O)(Oc1ccccc1)[C@@H](F)c1ccc2sc(C(=O)N[C@H]3CCCC[C@H]4CC[C@@H](C(=O)N5C(=O)N(c6cncc(C(F)(F)F)c6)C(=O)C56CC6)N4C3=O)cc2c1 (stereo partly drawn) [Compound 330, propyl (((R)-(2-(((3S,6S,10aS)-3-(5,7-dioxo-6-(5-(trifluoromethyl)pyridin-3-yl)-4,6-diazaspiro[2.4]heptane-4-carbonyl)-5-oxodecahydropyrrolo [1,2-a]azocin-6-yl)carbamoyl)benzo [b]thiophen-5-yl)fluoromethyl) (phenoxy)phosphoryl)-L-alaninate] | < 5.52
